Experimental data taken from ChEMBL document CHEMBL5620425, “Design, synthesis and evaluation of novel 1-phenyl-pyrrolo[1,2-b]isoquinolin-3-one derivatives as antagonists for the glycine binding site of the NMDA receptor” (Eur J Med Chem, 2023).
Calls of active or inactive are those of the source. No cut-off for these calls is given here.

Assays:
PC-12 [1] = experiment: Neuroprotective activity against NMDA-induced cell injury in rat PC12 cells assessed as cell viability at 2.5 to 20 uM incubated for 24 hrs MTT assay; type: functional, cell-based; details: dose 2.5-20 µM
PC-12 [2] = experiment: Neuroprotective activity against NMDA-induced cell injury in rat PC12 cells assessed as cell viability incubated for 24 hrs MTT assay; type: functional, cell-based; details: dose 2.5-20 µM
[3] = molecular target: T1, Glutamate receptor ionotropic, NMDA 1 (Homo sapiens, UniProt Q05586); experiment: Binding affinity to C-terminal GFP-tagged Grin1 NMDA receptor (unknown origin) expressed in HEK293F cells assessed as dissociation constant by MST assay; type: cell-based
PC-12 [4] = experiment: Neuroprotective activity against NMDA-induced cell injury in rat PC12 cells assessed as cell viability at 20 uM incubated for 24 hrs MTT assay (reference value: 77.1+/- 1.3%); type: functional; details: for viability at 20 µM: Rattus norvegicus; for Activity: 24 h, 20 µM
PC-12 [5] = experiment: Cytotoxicity against rat PC12 cells assessed as reduction in cell viability at 20 uM incubated for 24 hrs by MTT assay; type: functional
PC-12 [6] = experiment: Induction of apoptosis in NMDA-induced rat PC12 cells assessed as viable cells at 10 uM pretreated with compound for 24 hrs followed by NMDA addition and measured after 6 hrs by Annexin V-FITC/PI staining based flow cytometer analysis (reference value: 46.58%); type: functional; details: time 30 hrs, read-out: Activity
PC-12 [7] = experiment: Neuroprotective activity against NMDA-induced cell injury in rat PC12 cells assessed as cell viability 10 uM incubated for 24 hrs MTT assay; type: functional
PC-12 [8] = experiment: Induction of apoptosis in NMDA-induced rat PC12 cells assessed as early apoptotic cells at 10 uM pretreated with compound for 24 hrs followed by NMDA addition and measured after 6 hrs by Annexin V-FITC/PI staining based flow cytometer analysis (reference value: 23.33%); type: functional; details: time 30 hrs
[9] = molecular target: Glutamate NMDA receptor (Rattus norvegicus) (UniProt P35439+Q00959+Q00960+Q00961+Q62645+Q8VHN2+Q9R1M7); experiment: Antagonist activity at NMDA receptor in rat PC12 cells assessed as reduction in NMDA-induced calcium ion influx at 10 uM pretreated with compound for 24 hrs followed by NMDA addition and measured after 6 hrs calcium colorimetric assay; type: cell-based; details: filed as antagonist, time 30.0 hrs
PC-12 [10] = experiment: Effect on cell morphology in NMDA-induced rat PC12 cells assessed as cell shrank at 10 uM pretreated with NMDA for 6 hrs; type: functional, cell-based
PC-12 [11] = experiment: Neuroprotective activity against NMDA-induced cell injury in rat PC12 cells assessed as cell viability 5 uM incubated for 24 hrs MTT assay; type: functional
PC-12 [12] = experiment: Induction of apoptosis in NMDA-induced rat PC12 cells assessed as necrotic cells at 10 uM pretreated with compound for 24 hrs followed by NMDA addition and measured after 6 hrs by Annexin V-FITC/PI staining based flow cytometer analysis (reference value: 8%); type: functional; details: time 30 hrs
PC-12 [13] = experiment: Induction of apoptosis in NMDA-induced rat PC12 cells assessed as late apoptotic cells at 10 uM pretreated with compound for 24 hrs followed by NMDA addition and measured after 6 hrs by Annexin V-FITC/PI staining based flow cytometer analysis (reference value: 22.09 %); type: functional; details: time 30 hrs
[14] = molecular target: T1, Glutamate receptor ionotropic, NMDA 1; experiment: Binding affinity to C-terminal GFP-tagged NMDA Grin1.M mutant (unknown origin) expressed in HEK293F cells assessed as dissociation constant by MST assay; type: cell-based
PC-12 [15] = experiment: Cytotoxicity against rat PC12 cells assessed as reduction in cell viability at 5 uM incubated for 24 hrs by MTT assay; type: functional, cell-based
[16] = PC-12, 24 h, read-out: Activity

O=C1C[C@@H](c2cccc(OCc3ccccc3)c2)[C@@H]2Cc3ccccc3CN12
Activity (PC-12 [1]): Active
Activity (PC-12 [2]): Dose-Dependent Effect
Kd [3]: 370 nM

O=C1C[C@H](c2cccc(OCc3ccccc3)c2)[C@H]2Cc3ccccc3CN12
Activity (PC-12 [1]): Active
Activity (PC-12 [2]): Dose-Dependent Effect
Kd [3]: 162 nM

O=C1CC(c2ccc(Cl)cc2)C2Cc3ccccc3CN12 (racemic)
viability at 20 µM (PC-12 [4]; [16]): 77.1%

O=C1CC(c2cccc(O)c2)C2Cc3ccccc3CN12 (racemic)
viability at 20 µM (PC-12 [4]; [16]): 78.4%
Activity (PC-12 [5]): >87.9%

O=C1CC(c2ccccc2)C2Cc3ccc(OCc4ccccc4)cc3CN12 (racemic)
viability at 20 µM (PC-12 [4]; [16]): 68.5%
Activity (PC-12 [5]): >87.9%

O=C1CC(c2cccc(OCc3ccccc3)c2)C2Cc3ccccc3CN12 (racemic)
viability at 10 µM (PC-12 [6]): 59.6%
Activity (PC-12 [7]): 92.7%
viability at 20 µM (PC-12 [4]; [16]): 94.4%
Activity (PC-12 [5]): >87.9%
Activity (PC-12 [2]): Dose-Dependent Effect
Activity (PC-12 [8]): 15.6%
Activity [9]: Active
Activity (PC-12 [10]): Active
Activity (PC-12 [11]): 93.1%
Activity (PC-12 [12]): 6.94%
Activity (PC-12 [13]): 17.88%
Kd [3]: 496 nM
Kd [14]: 4250 nM

O=C1CC(c2ccccc2)C2Cc3ccc(O)cc3CN12 (racemic)
viability at 20 µM (PC-12 [4]; [16]): 82.4%
Activity (PC-12 [5]): >87.9%

O=C1CC(c2ccccc2)C2Cc3ccc(F)cc3CN12 (racemic)
viability at 20 µM (PC-12 [4]; [16]): 82.2%
Activity (PC-12 [5]): >87.9%

O=C1CC(c2ccccc2)C2Cc3ccccc3CN12 (racemic; 13a)
viability at 20 µM (PC-12 [4]; [16]): 85.3%
Activity (PC-12 [5]): >87.9%

O=C1CC(c2ccc(F)cc2)C2Cc3ccccc3CN12 (racemic; 13d)
viability at 20 µM (PC-12 [4]; [16]): 90.6%
Activity (PC-12 [5]): >87.9%

O=C1CC(c2ccccc2Cl)C2Cc3ccccc3CN12 (racemic; 13e)
viability at 20 µM (PC-12 [4]; [16]): 77.9%
Activity (PC-12 [5]): >87.9%

COc1ccc(C2CC(=O)N3Cc4cc(O)ccc4CC23)cc1 (racemic; 13f)
viability at 20 µM (PC-12 [4]; [16]): 81.7%
Activity (PC-12 [5]): >87.9%

O=C1CC(c2ccc(C(F)(F)F)cc2)C2Cc3ccccc3CN12 (racemic; 13g)
viability at 20 µM (PC-12 [4]; [16]): 85.6%

Cc1ccc(C2CC(=O)N3Cc4ccccc4CC23)cc1 (racemic; 13i) [listing 1 of 2 here]
viability at 20 µM (PC-12 [4]; [16]): 77%

Cc1ccc(C2CC(=O)N3Cc4ccccc4CC23)cc1 (racemic; 13i) [listing 2 of 2 here]
Activity (PC-12 [15]): Active

O=C1CC(c2cccc(Oc3ccccc3)c2)C2Cc3ccccc3CN12 (racemic; 13j) [listing 1 of 2 here]
viability at 20 µM (PC-12 [4]; [16]): 77.6%
Activity (PC-12 [5]): 3.4%

O=C1CC(c2cccc(Oc3ccccc3)c2)C2Cc3ccccc3CN12 (racemic; 13j) [listing 2 of 2 here]
Activity (PC-12 [15]): Active

O=C1CC(c2ccccc2Oc2ccccc2)C2Cc3ccccc3CN12 (racemic; 13k)
viability at 20 µM (PC-12 [4]; [16]): 77.5%
Activity (PC-12 [5]): 3.4%

O=C1CC(c2cccc3ccccc23)C2Cc3ccccc3CN12 (racemic; 13l)
viability at 20 µM (PC-12 [4]; [16]): 74.2%

O=C1CC(c2ccccc2)C2Cc3ccccc3CN12 (racemic; 14a)
Activity (PC-12 [4]): 85%

O=C1CC(c2ccc(F)cc2)C2Cc3ccccc3CN12 (racemic; 14e)
Activity (PC-12 [4]): 88.1%

O=C1CC(c2ccccc2Cl)C2Cc3ccccc3CN12 (racemic; 14f)
Activity (PC-12 [4]): 74.8%

COc1ccc(C2CC(=O)N3Cc4cc(O)ccc4CC23)cc1 (racemic; 14g)
Activity (PC-12 [4]): 75.2%

O=C1CC(c2ccc(C(F)(F)F)cc2)C2Cc3ccccc3CN12 (racemic; 14h)
Activity (PC-12 [4]): 78.7%

Cc1ccc(C2CC(=O)N3Cc4ccccc4CC23)cc1 (racemic; 14j)
Activity (PC-12 [4]): 82.3%

O=C1CC(c2cccc(Oc3ccccc3)c2)C2Cc3ccccc3CN12 (racemic; 14k) [listing 1 of 2 here]
Activity (PC-12 [4]): 72.3%

O=C1CC(c2cccc(Oc3ccccc3)c2)C2Cc3ccccc3CN12 (racemic; 14k) [listing 2 of 2 here]
Activity (PC-12 [15]): Active

O=C1CC(c2ccccc2Oc2ccccc2)C2Cc3ccccc3CN12 (racemic; 14l) [listing 1 of 2 here]
Activity (PC-12 [4]): 76.3%

O=C1CC(c2ccccc2Oc2ccccc2)C2Cc3ccccc3CN12 (racemic; 14l) [listing 2 of 2 here]
Activity (PC-12 [15]): Active

O=C1CC(c2cccc3ccccc23)C2Cc3ccccc3CN12 (racemic; 14m)
Activity (PC-12 [4]): 74%

C[C@]12N[C@H](Cc3ccccc31)c1ccccc12 [DIZOCILPINE]
viability at 10 µM (PC-12 [6]): 70.9%
viability at 20 µM (PC-12 [4]; PC-12, read-out: Activity): 95.1%
Activity (PC-12 [8]): 10.22%
Activity [9]: Active
Activity (PC-12 [10]): Active
Activity (PC-12 [12]): 6.81%
Activity (PC-12 [13]): 12.12%
